# Columns and labels:
# [1] = tested on: LU-139 (Small Cell Lung Carcinoma); test: combination Emax (second highest fraction inhibited in the dose matrix, 72 h); higher = more inhibition; extreme values may be limits of the assay
# Method in brief: (§1)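 Cell lines in DMEM/F12 or RPMI with 10% FBS were plated in 1536-well plates, held 24 hours at 37°C, 5% CO2, then given two-drug dose matrices for 72 hours (DMSO typically 0.2%). Viability was read by CellTiter-Glo 2.0 luminescence and scaled as inhibition from 0 (vehicle wells) to 1 (blank wells). Combination Emax is the second-highest inhibition in the matrix; Bliss excess is observed combination effect minus expected EA + EB − EA·EB, EA and EB being single-agent effects.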
# [2] = tested on: SW1116 (Colorectal Carcinoma); test: as above
# Method in brief: as §1
# [3] = tested on: SUP-T1 (T-Lymphoblastic Leukemia); test: as above
# Method in brief: as §1
# NB14 (Neuroblastoma) [4] = test: as above
# Method in brief: as §1
# [5] = tested on: SK-OV-3 (Ovarian Carcinoma); test: as above
# Method in brief: as §1
# [6] = tested on: K5 (Thyroid Gland Carcinoma); test: as above
# Method in brief: as §1
# [7] = tested on: SU-DHL-6 (B-Cell Non-Hodgkin's Lymphoma); test: as above
# Method in brief: as §1
# NCI-H2795 (Mesothelioma) = test: as above
# Method in brief: as §1
# [8] = tested on: OC-314 (Ovarian Carcinoma); test: as above
# Method in brief: as §1
# [9] = tested on: HDLM-2 (Hodgkin's Lymphoma); test: as above
# Method in brief: as §1
# NCI-H2461 (Mesothelioma) = test: Bliss excess, mean over the matrix (fraction); higher = more synergy
# Method in brief: as §1
# [10] = tested on: SUP-T1 (T-Lymphoblastic Leukemia); test: as above
# Method in brief: as §1
# NB14 (Neuroblastoma) [11] = test: as above
# Method in brief: as §1
# [12] = tested on: HARA (Squamous Cell Lung Carcinoma); test: as above
# Method in brief: as §1
# [13] = tested on: 8305C (Thyroid Gland Carcinoma); test: as above
# Method in brief: as §1
# [14] = tested on: K5 (Thyroid Gland Carcinoma); test: as above
# Method in brief: as §1
# Mewo (Melanoma) = test: as above
# Method in brief: as §1
# [15] = tested on: HDLM-2 (Hodgkin's Lymphoma); test: as above
# Method in brief: as §1
# [16] = tested on: EN (Endometrial Carcinoma); test: as above
# Method in brief: as §1
# [17] = tested on: NCI-H69 (Small Cell Lung Carcinoma); test: as above
# Method in brief: as §1
# 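Wherever Bliss excess, mean over the matrix is given: after 72 h of two-drug dosing.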
SMILES,combination Emax [1],combination Emax [2],combination Emax [3],combination Emax (NB14 (Neuroblastoma) [4]),combination Emax [5],combination Emax [6],combination Emax [7],combination Emax (NCI-H2795 (Mesothelioma)),combination Emax [8],combination Emax [9],Bliss excess (NCI-H2461 (Mesothelioma)),Bliss excess [10],Bliss excess (NB14 (Neuroblastoma) [11]),Bliss excess [12],Bliss excess [13],Bliss excess [14],Bliss excess (Mewo (Melanoma)),Bliss excess [15],Bliss excess [16],Bliss excess [17]
"N#Cc1cnc(Nc2cc(NC[C@H]3CNCCO3)c(C(F)(F)F)cn2)cn1 [SRA737] + CCc1c2c(nc3ccc(O)cc13)-c1cc3c(c(=O)n1C2)COC(=O)[C@]3(O)CC [SN-38] (first compound max 10 µM, 7x7, partner max 0.3 µM)",0.747,0.616,0.796,0.981,0.542,0.512,1,0.769,0.994,0.724,-0.0351,-0.0989,-0.0148,-0.0628,-0.0419,-0.043,0.022,-0.0382,-0.0706,0.0781
"CN(CCO)CC[C@H](CSc1ccccc1)Nc1ccc(S(=O)(=O)NC(=O)c2ccc(N3CCC([C@@H](O)c4ccccc4-c4ccc(Cl)cc4)CC3)cc2)cc1S(=O)(=O)C(F)(F)F [AZD4320] + Nc1ccn([C@@H]2O[C@H](CO)[C@@H](O)C2(F)F)c(=O)n1 [Gemcitabine] (first compound max 1 µM, 7x7, partner max 0.3 µM)",0.961,0.184,0.846,0.993,0.308,0.688,0.998,0.872,0.989,0.935,0.0285,0.0225,0.0314,-0.0498,0.072,0.0121,0.0099,0.0204,-0.0382,-0.0064
"C=CCn1c(=O)c2cnc(Nc3ccc(N4CCN(C)CC4)cc3)nc2n1-c1cccc(C(C)(C)O)n1 [AZD1775] + Nc1ccn([C@@H]2O[C@H](CO)[C@@H](O)C2(F)F)c(=O)n1 [Gemcitabine] (first compound max 1 µM, partner max 0.3 µM)",0.795,0.405,0.862,1,0.583,0.568,0.958,0.785,0.972,0.763,-0.0446,-0.047,–,0.0187,-0.0524,-0.0194,-0.0623,-0.0627,-0.0552,-0.0754
"Cc1c2c(nn1C)CSCc1cc(n(C)n1)CSc1cc(c3ccccc3c1)OCCCc1c(C(=O)O)n(C)c3c-2c(Cl)ccc13 [AZD5991] + Nc1ccn([C@@H]2O[C@H](CO)[C@@H](O)C2(F)F)c(=O)n1 [Gemcitabine] (first compound max 1 µM, 7x7, partner max 0.3 µM)",0.855,0.203,0.77,0.853,0.341,0.544,1,0.869,0.917,0.967,-0.0432,-0.0332,-0.0213,-0.0107,-0.121,-0.045,-0.0395,0.0014,-0.0535,-0.0178
"Cc1c2c(nn1C)CSCc1cc(n(C)n1)CSc1cc(c3ccccc3c1)OCCCc1c(C(=O)O)n(C)c3c-2c(Cl)ccc13 [AZD5991] + CC(=O)O[C@H]1C(=O)[C@@]2(C)[C@H]([C@H](OC(=O)c3ccccc3)[C@]3(O)C[C@H](OC(=O)[C@H](O)[C@@H](NC(=O)c4ccccc4)c4ccccc4)C(C)=C1C3(C)C)[C@]1(OC(C)=O)CO[C@@H]1C[C@@H]2O [Paclitaxel] (first compound max 1 µM, 7x7, partner max 3 µM)",0.649,0.438,0.744,1,0.54,0.846,1,0.943,0.995,0.996,-0.0417,-0.0847,-0.0212,-0.003,-0.0118,-0.0361,0.0103,0.0128,0.149,-0.0504
"C[C@@H](Oc1cc(-c2cnn(C3CCNCC3)c2)cnc1N)c1c(Cl)ccc(F)c1Cl [Crizotinib] + Cn1cnc2c(F)c(Nc3ccc(Br)cc3Cl)c(C(=O)NOCCO)cc21 [Selumetinib] (first compound max 10 µM, 7x7, partner max 10 µM)",0.684,0.518,0.823,0.966,0.249,0.682,1,0.918,0.494,0.193,-0.0376,-0.0501,0.0218,-0.0366,0.0017,-0.0788,-0.0431,-0.0399,-0.0542,-0.0607
